Results published in ChEMBL document CHEMBL3507680, “University of Dundee, Gates Library screen for HepG2 cell viability”.

Experiment: Human HepG2 cell viability assay in 384 well format
Type: toxicity, cell-based
Set-up: dose 125 nL, time 70.5 hour; cytotoxicity at 70.5 h: concentration not given beside the values
Settings: HepG2 cells, read-out: Inhibition

## CN(C)c1ccc(C(=O)N2CCN(CC(O)C(C)(C)C)CC2)nn1 (configuration not stated)
  cytotoxicity at 70.5 h: 0.302%

## CC(=O)Nc1ccc(CNCC(O)c2ccc(Cl)cc2)cc1 (configuration not stated)
  cytotoxicity at 70.5 h: -5.19%

## CCOCC(=O)N1CCC(c2nccn2C)CC1
  cytotoxicity at 70.5 h: 2.76%

## CNC(=O)[C@@H]1CN(C(=O)CCOC)C[C@H]1c1ccnc(N2CCCC2)n1
  cytotoxicity at 70.5 h: -4.83%

## O=C(O)c1nnn(-c2ccc(Cl)c(C(F)(F)F)c2)c1-c1ccncc1
  cytotoxicity at 70.5 h: -26.7%

## Cc1nn(C)c2nc(N(CCN(C)C)C3CCCC3)sc12
  cytotoxicity at 70.5 h: 2.63%

## O=C(c1ccsc1)N1CCOC2(CCN(Cc3cccnc3)CC2)C1
  cytotoxicity at 70.5 h: -1.16%

## Cc1cc(NC(=O)C(C)N2CCN(c3nccs3)CC2)on1 (configuration not stated)
  cytotoxicity at 70.5 h: -3.21%

## Cc1noc(C)c1CN1CCO[C@H]2CN(CC3CC3)C[C@H]21
  cytotoxicity at 70.5 h: -28.9%

## Clc1ccc(C2(NCc3noc(C4CC4)n3)CCOCC2)cc1
  cytotoxicity at 70.5 h: -8.54%

## CCN1CCc2onc(CNc3ncccn3)c2C1
  cytotoxicity at 70.5 h: 8.16%

## N#Cc1c(N2CCCN(C3CCOCC3)CC2)nc2ccccn12
  cytotoxicity at 70.5 h: -2.26%

## CC(C)Oc1cccc(CN(C)C(=O)Cc2ccon2)c1
  cytotoxicity at 70.5 h: 4.02%

## O=C(C1CCC2(CCN(c3nncs3)CC2)C1)N1CCCC1 (configuration not stated)
  cytotoxicity at 70.5 h: 9.17%

## O=C(CCc1nc2cc(Br)cnc2[nH]1)NCCCN1CCOCC1
  cytotoxicity at 70.5 h: -17.4%

## CCn1ccnc1CN1CCN(CCc2ccccn2)CC1C (configuration not stated)
  cytotoxicity at 70.5 h: -3.46%

## CCSc1ccc(NC(=O)NC2CCc3[nH]ncc3C2)cn1 (configuration not stated)
  cytotoxicity at 70.5 h: -4.32%

## CCCC(=O)N1CCC2(CC1)COC2
  cytotoxicity at 70.5 h: -7.56%

## C[C@H]1CN(Cc2cccc(F)c2)C[C@@]12CCN(CC(=O)N(C)C)C2=O
  cytotoxicity at 70.5 h: -5.99%

## CC(C)c1n[nH]c(C(=O)Nc2cc[nH]n2)c1Br
  cytotoxicity at 70.5 h: 7.8%

## CN(C(=O)c1ccccc1F)[C@@H]1CC[C@@H](O)[C@@H]1O
  cytotoxicity at 70.5 h: -5.24%

## CC(=O)N1CCN(C(=O)Cn2ccc3c(Cl)cccc32)CC1
  cytotoxicity at 70.5 h: -16.8%

## N#Cc1cccc(C(=O)N2CCCC(O)(CO)CC2)c1 (configuration not stated)
  cytotoxicity at 70.5 h: -4.07%

## O=C(c1c[nH]cn1)N1CCC(F)(F)C2(CCN(c3ccccn3)C2)C1 (configuration not stated)
  cytotoxicity at 70.5 h: -4.42%

## CS(=O)(=O)N1C[C@@H]2CC[C@H](C1)N(C(=O)Cn1ccc3ccccc31)C2
  cytotoxicity at 70.5 h: -4.09%

## COCCN1CCC(NCc2cccc(F)c2)C1 (configuration not stated)
  cytotoxicity at 70.5 h: 26.3%

## Cc1nc(C2CN(Cc3scnc3C)CCO2)cc(N(C)C)n1 (configuration not stated)
  cytotoxicity at 70.5 h: 5.46%

## Cc1cc(C[C@@H]2COC[C@@H]2NC(=O)Cn2c(=O)oc3ccccc32)on1
  cytotoxicity at 70.5 h: 1.37%

## COCC(=O)Nc1cnc(N2CCCC2)nc1
  cytotoxicity at 70.5 h: -0.927%

## O=C1NC2(CCCCC2)c2nnnn2-c2ccc(Br)cc21
  cytotoxicity at 70.5 h: -5.57%

## CCOc1nc2cnccc2n(CC(=O)Nc2ccccc2OC)c1=O
  cytotoxicity at 70.5 h: -7.54%

## COc1ccc(NC(=O)N2CCC(c3noc(C)n3)CC2)cc1C
  cytotoxicity at 70.5 h: 1.97%

## Cc1ccsc1CN(Cc1ccccn1)CC(O)CO (configuration not stated)
  cytotoxicity at 70.5 h: -1.67%

## CC(=O)NCCc1cn(-c2cc(F)ccc2C)cn1
  cytotoxicity at 70.5 h: -8.56%

## Cc1cnc(CN(C)CC2CCCN2c2cccnn2)cn1 (configuration not stated)
  cytotoxicity at 70.5 h: 14.1%

## CCN1CCC(CNC(=O)C2(c3cccc(C)c3)CC2)C1 (configuration not stated)
  cytotoxicity at 70.5 h: 0.0668%

## Nc1cc(N2CCOCC(Cc3ccc4[nH]ccc4c3)C2)ncn1 (configuration not stated)
  cytotoxicity at 70.5 h: -0.988%

## CCc1cc(CN2CCCCC2c2ccc(F)cc2)on1 (configuration not stated)
  cytotoxicity at 70.5 h: -5.55%

## O=C(CCc1ccncc1)N1CCc2cc(Cl)cc(Cl)c2C1
  cytotoxicity at 70.5 h: 17.4%

## CN1CCC(NC(=O)Cc2csc(C(C)(C)C)n2)CC1
  cytotoxicity at 70.5 h: -10.5%

## CCc1ccccc1-c1cc(OC)nc(N)n1
  cytotoxicity at 70.5 h: -8.45%

## Cn1cc2c(n1)C(COCC1CC1)CN(Cc1ccsc1)C2 (configuration not stated)
  cytotoxicity at 70.5 h: -3.4%

## CCC(=O)N(C)C1CCN(Cc2ncc(C)c(OC)c2C)CC1
  cytotoxicity at 70.5 h: -17.3%

## Cc1nn(CC(=O)NCCc2ccncc2)c(=O)n1Cc1ccccc1
  cytotoxicity at 70.5 h: 1.25%

## CCC(c1ccccc1)S(=O)(=O)CCO (configuration not stated)
  cytotoxicity at 70.5 h: -2.1%

## COc1cccc(-c2nc(C)c(C(=O)N[C@@H](C)C(=O)O)s2)c1
  cytotoxicity at 70.5 h: 4.53%

## CC1CCCCN1CCNC(=O)c1ccn(-c2ccc(F)cc2)n1 (configuration not stated)
  cytotoxicity at 70.5 h: 35.6%

## CNC(=O)NC(=O)CCSCc1cc(Cl)cc2cccnc12
  cytotoxicity at 70.5 h: -16.5%

## Cc1nc2c(c(=O)n1C)CCN(Cc1cc3cc[nH]c3cn1)CC2
  cytotoxicity at 70.5 h: 10.6%

## Cc1nc(NC(=O)C(C)N2CCN(c3cnccn3)CC2)sc1C (configuration not stated)
  cytotoxicity at 70.5 h: -4.32%

## CN(Cc1cn2c(n1)CN(Cc1ccsc1)CC2)Cc1ccco1
  cytotoxicity at 70.5 h: -6.14%

## CS(=O)(=O)NC(=O)c1nnn(-c2ccccc2)c1C1CC1
  cytotoxicity at 70.5 h: -5.6%

## N#Cc1cc(N2CCC(CS(N)(=O)=O)CC2)nc2ccccc12
  cytotoxicity at 70.5 h: 1.54%

## CC1=NOC(C(=O)N2CCC(O)(c3ccc4nc(C)ccc4c3)CC2)C1 (configuration not stated)
  cytotoxicity at 70.5 h: -6.17%

## COCCN1C(=O)[C@H]2CC[C@@H]1CN(Cc1nnc(C3CC3)o1)C2
  cytotoxicity at 70.5 h: 19.1%

## COC(=O)Nc1ccc(CNc2cncc(-n3cccn3)n2)cc1
  cytotoxicity at 70.5 h: -18.2%

## O=C(NCc1ccccc1CN1CCOCC1)Nc1nncs1
  cytotoxicity at 70.5 h: 11%

## O=C(O)Cn1nc(C2CC2)c2c(-c3ccc(F)cc3)ccnc21
  cytotoxicity at 70.5 h: -10.6%

## Cc1noc(C)c1CN1CC[C@H]2OCC[C@@]2(C(=O)N2CCOCC2)C1
  cytotoxicity at 70.5 h: -4.59%

## CNS(=O)(=O)c1cccc(CNc2ncccn2)c1
  cytotoxicity at 70.5 h: -1.46%

## c1ccc(CO[C@H]2CO[C@@]3(CCCN(Cc4ccncc4)C3)C2)nc1
  cytotoxicity at 70.5 h: -16.2%

## Cc1cnc(NC(=O)c2cccc(CN(C)Cc3ncccc3C)c2)s1
  cytotoxicity at 70.5 h: 8.51%

## Cc1cccc(N2CCC(NCc3cnc(C4CCC4)s3)CC2)n1
  cytotoxicity at 70.5 h: 3.13%

## CC(O)CN1CCN(C(=O)c2sccc2C2CC2)CC1 (configuration not stated)
  cytotoxicity at 70.5 h: -5.67%

## Cn1nc2c(cc1=O)CN(Cc1nc(N)c3ccccc3n1)CC2
  cytotoxicity at 70.5 h: 7.46%

## CC(C)N(Cc1ccccn1)Cc1nc2c(cnn2C)c(=O)[nH]1
  cytotoxicity at 70.5 h: -6.49%

## Cc1nc(CN2CCOC(Cn3cccn3)C2)no1 (configuration not stated)
  cytotoxicity at 70.5 h: -3.79%

## CC(C)NC(=O)N1CCC2(COCc3cnc(-c4ccccc4)nc32)C1 (configuration not stated)
  cytotoxicity at 70.5 h: 9.3%

## Cc1ccc2c(c1)c(CNC(C)Cn1ccnc1)nn2C (configuration not stated)
  cytotoxicity at 70.5 h: -5.3%

## Cc1ncsc1C(=O)NCc1ccnc(N2CCN(C)CC2)c1
  cytotoxicity at 70.5 h: -7.54%

## CC(Cn1cccn1)n1cnc2cccc(Cl)c2c1=O (configuration not stated)
  cytotoxicity at 70.5 h: 7.81%

## CCO[C@@H]1CO[C@@]2(CCCN(S(=O)(=O)c3ccccc3)C2)C1
  cytotoxicity at 70.5 h: -8.47%

## COc1ccc(-n2cccn2)c(CN2CCC3(CCCN(C)C3=O)C2)c1 (configuration not stated)
  cytotoxicity at 70.5 h: -9.91%

## COc1ccc(F)c(CN2CCCC3(CCN(S(C)(=O)=O)C3)C2)c1 (configuration not stated)
  cytotoxicity at 70.5 h: -10.2%

## Cc1ccsc1C(=O)N1CC(C(=O)NC(C)C)C2(CCOCC2)C1 (configuration not stated)
  cytotoxicity at 70.5 h: 1.65%

## CN1CC(=O)N(c2cccc(F)c2)CC12CCN(S(C)(=O)=O)C2 (configuration not stated)
  cytotoxicity at 70.5 h: -10.7%

## CC(C)c1n[nH]c(C2CN(C(=O)COCC(F)(F)F)CCO2)n1 (configuration not stated)
  cytotoxicity at 70.5 h: -12.9%

## COCCC1COC2(CCN(C(=O)c3cccn3C)CC2)C1 (configuration not stated)
  cytotoxicity at 70.5 h: -14.7%

## CC(NC(=O)C1CCCC1)c1nc(-c2ccccc2)c[nH]1 (configuration not stated)
  cytotoxicity at 70.5 h: 1.26%

## Cc1nc(Nc2ccccn2)cc(N2CCN(S(C)(=O)=O)CC2)n1
  cytotoxicity at 70.5 h: 11.2%

## CC(=O)N1N=C(c2ccccc2)OC1C(=O)NCCc1cccc(F)c1 (configuration not stated)
  cytotoxicity at 70.5 h: 4.79%

## COCCC1(C(=O)O)CCCN(C(=O)c2cc(C)oc2C)C1 (configuration not stated)
  cytotoxicity at 70.5 h: -15.5%
